Test results published in patent US5234822A, “Trypanosoma cruzi heparin-binding protein and antibodies thereto” (priority 1991, dated 1993).

Assays:
[1] = test system: T. cruzi penetrin (60 kD trypomastigote heparin-binding protein), column-purified; assay: Binding of column-purified [125I]-labeled penetrin to fibroblasts (Vero cells); parameters: species or system Trypanosoma cruzi
Description: Binding of [^125 I]-labeled penetrin to Vero cells was assayed as follows. Vero cells, grown in multiwell plates to confluence as described above, were rinsed once with 1% BSA-RPMI-1640, and incubated at 37° C. with increasing concentrations of [^125 I]-labeled penetrin. After 1 h the medium was removed, cell monolayers were washed three times with PBS, solubilized with 100 μl of 2M NaOH, and the retained radioactivity measured in a gamma counter. For inhibition experiments, an aliquot of [^125 I]-labeled penetrin was preincubated with the potential inhibitors prior to adding to confluent cells, and processed as above.

[2] = test system: T. cruzi penetrin (60 kD trypomastigote heparin-binding protein), column-purified; assay: Binding of column-purified [125I]-labeled penetrin to heparin-Sepharose; parameters: species or system Trypanosoma cruzi; conditions: compound 100 μg/ml; Bovine Serum Albumin control 1.9
Description: To determine if [^125 I]-labeled penetrin was still active in binding extracellular matrix proteins after isolation by heparin affinity chromatography, rebinding and inhibition of rebinding to heparin-Sepharosebeads was performed. Briefly, column purified [^125 I]-labeled penetrin was incubated with or without compounds and mixed with 100 μl of heparin-Sepharose. The mixture was incubated at room temperature for 2 h under slow rocking. The slurry was then centrifuged (500× g, 5 min), washed three times with PBS, and bound radioactivity determined in a gamma counter. Referring to FIG. 7, in the absence of competitors, column-purified [^125 I]-labeled penetrin retained its ability to bind heparin-Sepharose.
For inhibition experiments, an aliquot of the purified heparin-binding protein was mixed with putative inhibitors for 1 h at room temperature, and the mixture added to 100 μl of heparin-Sepharose as above. The amount of [^125 I]-labeled protein retained by the agarose beads was assessed by elution of the protein with 1% SDS, SDS-polyacrylamide gel electrophoresis and autoradiography, and quantitated in a laser scanning densitometer (Pharmacia LKB, Ultroscan XL). One hundred percent binding was taken as the amount of protein retained by the heparin-Sepharose in the absence of added inhibitor. Referring to Table 2, adsorption of penetrin was inhibited by pre-incubation with soluble heparin, heparan sulfate or collagen, but not with other glycosaminoglycans (chondroitin sulfate and hyaluronic acid).

[3] = test system: E. coli XL-1 Blue with clone HBP-6 expressing penetrin, entering Vero cells; assay: Penetrin-mediated entry of E. coli into Vero cells (gentamicin survival); format: cell-based, Escherichia coli; conditions: 250 μg/ml; for inhibition of penetration of bacteria: E. coli preincubated with inhibitor; for survival of bacteria after gentamicin: 4.3% without inhibitor
Description: E. coli expressing penetrin are able to enter nonphagocytic mammalian cells which normally exclude E. coli. […] Recombinant bacteria were grown overnight at 37°, washed twice in PBS, resuspended at 10^8 cells/ml, and aliquots of 2×10^7 E coli were added to monolayers of 2×10^5 Vero cells per microliter well in 1 ml of RPMI 1640 medium containing 1% BSA. Bacteria were centrifuged onto the cell monolayer, and the cultures were incubated at 37° for 3 h in a 5% CO2 /95% air atmosphere, washed three times with sterile PBS, and incubated for an additional 1.5 h at 37° C. in RPMI 1640 medium containing 1% BSA and 75 μg/ml gentamicin (to kill bacteria bound to outer membrane). The monolayers were then washed three times in sterile PBS, and lysed with 0.5% Triton X-100 in deionized water to release internalized bacteria, which were quantitated in agar plates.

[4] = test system: T. cruzi trypomastigotes adhering to glutaraldehyde-fixed Vero cells; assay: Inhibition of trypomastigote binding to Vero cells; format: cell-based, Trypanosoma cruzi; conditions: trypomastigotes preincubated 30 min at 37° C., binding 60 min
Description: In these experiments attachment of trypomastigotes to Vero cell monolayers was measured as follows. Briefly, Vero cells were maintained in RPMI 1640 supplemented with heat-inactivated 1% Nu-serum (Collaborative Research Inc., Bedford, Mass.), penicillin (100 U/ml) and streptomycin ([…]). Unless noted otherwise, cells were maintained in plastic tissue culture flasks (150 cm^2, Bellco, Vineland, N.J.) and incubated at 37° C. in a humidified atmosphere containing 5% CO2 and 95% air. Cells were propagated every 1-2 weeks after trypsin-EDTA digestion (0.5 g trypsin, 0.2 g EDTA in HBSS without Ca^++ and Mg^++) in 16-well Lab-Tek® chamber slide™ (Nunc, Inc., Naperville, Ill.. Prior to binding experiments Vero cells were removed with trypsin and plated on 96-well tissue culture plates (Bellco, Vineland, N.J.) or in 16-well Lab-Tek® chamber slide™ at a density of 7.5×10^3 cells per well. After 24 h, the medium was removed, cells were washed twice with PBS, pH 7.2, and fixed for 5 min at 4° C. by addition of 2% glutaraldehyde (grade I, Sigma Chemical Co., St. Louis, Mo.) in PBS. Cell monolayers were washed twice with PBS, pH 7.2 and incubated overnight at 4° C. in 0.16M ethanolamine, pH 8.3 to block residual free […] amino groups. The next day, cell monolayers were washed three times with PBS as above, and two times with 1% BSA/RPMI-1640 and kept at least 1 h at 37° C. in the same medium.
Trypomastigotes, [^35 S]-labeled as described above, were added to the cell monolayers in a total volume of 100 μl/well and the plates were incubated for 1 h at 37° C. Each well was then washed five times with 100 μl prewarmed PBS (pH 7.2). The [^35 S] label was solubilized with 2M NaOH and the bound radioactivity was determined in a liquid scintillation counter. Alternatively, unlabeled trypomastigotes were added to wells of a 16-well Lab-Tek® chamber slide™ and incubated as above. After removing the plastic chamber, the slide was washed by dipping 5 times in PBS (pH 7.2) and immersed upside-down in 4% paraformaldehyde in PBS, containing 7% sucrose. Finally, the slide was rinsed with PBS, stained with Diff-Quik®and the number of bound T. cruzi were determined by counting under light microscopy. For inhibition studies, trypomastigotes were preincubated 30 min at 37° C. with the appropriate proteoglycan in 100 μl of 1% BSA-RPMI- 1640 before addition to cell monolayers. Binding was determined in triplicate at each inhibitor concentration and in the absence of inhibitor.
In this assay 100% binding was taken to 5 ×10^4 trypomastigotes/well bound in 60 min.

[5] = test system: T. cruzi trypomastigotes infecting Vero cells; assay: Inhibition of T. cruzi infection of Vero cells; format: cell-based, Trypanosoma cruzi; conditions: for concentration causing 50% reduction of infection: FIG. 4, parasites preincubated 30 min, 2 h interaction, 3 days culture; for effect on infection: FIG. 4, even at high concentrations
Description: In these experiments, cultured Vero cells were released with trypsin/EDTA, plated at 7.5×10^3 cells/well in 16-well Lab-Tek® chamber slides™ for 24 h, and used for infection at ~75% confluence. Trypomastigotes were harvested, washed with serum-free RPMI containing 1% BSA, and mixed with various concentrations of proteoglycans. After 30 min at 37° C., 5×10^5 parasites in a total volume of 100 μl were added to each well containing subconfluent cultures of Vero cells and allowed to interact for 2 h at 37° C. At the end of the incubation time, cell monolayers were rinsed three times with serum-free medium, and further incubated in RPMI-1640 containing 1% Nu-serum for 3 days at 37° C. Finally, monolayers were washed, stained with Diff-Quik®, and examined under a microscope to estimate the ratio of infected (i.e., Vero cell containing more than one intracellular amastigote) to non-infected Vero cells. In order to establish if the inhibitory effect was due to interaction of heparin and heparan sulfate with trypomastigotes rather than to Vero cells, parasites or host cells were preincubated with the putative inhibitors, washed extensively, and assayed for infection as above.

[6] = test system: T. cruzi trypomastigotes; assay: Trypomastigote binding to heparin- or collagen-coated wells; format: cell-based, Trypanosoma cruzi; conditions: soluble compound
Description: Proteoglycans (dissolved in PBS) and collagen solubilized in 0.1N HCl and neutralized in PBS) were adsorbed onto plastic (Falcon 3912 polyvinylchloride 96-well microliter plates) by incubation overnight at 4° C. (Roberts et al., J. BioI. Chem. 264:9289, 1989). The unbound proteins were removed, the wells filled with 1% heat-treated BSA in PBS (56° C., 60 min and filtered in […] nitrocellulose filters to remove insoluble particles) and incubated for 1 h at room temperature. The wells were then washed twice with PBS (pH 7.2) and rinsed with RPMI 1640 containing 1% BSA. T. cruzi trypomastigotes, labeled with [^35 S] methionine, were resuspended in RPMI-BSA and 100 μl of the suspension was applied to the wells. After various periods of incubation at 37° C., the wells were carefully washed three times with 37° C. PBS (pH 7.2). T. cruzi bound to the plastic-bound proteoglycans were then solubilized with 100 μ l of 2 M NaOH, mixed with Ultrafluor (National Diagnostics, Manville, N.J.), and assayed by liquid scintillation counting. Referring to FIG. 1a, adherence of trypomastigotes to heparin-coated plates increased linearly with the length of incubation up to about 60 min. In a separate experiment trypomastigotes were added for 60 min, but the number added was varied. […] In contrast, non-specific binding to BSA-coated wells was less than 2%.

Row | Substance | inhibition of binding of [125I]-labeled penetrin to Vero cell monolayers (in words) [1] | % Inhibition of penetrin binding to fibroblasts ([1]; compound 250 μg/ml) | Penetrin Bound [2] | inhibition of penetration of bacteria [3] | survival of bacteria after gentamicin [3] | % Vero Cells with Trypomastigotes ([4]; inhibitor 125 μg/ml) | % Vero Cells with Trypomastigotes ([4]; inhibitor 250 μg/ml) | concentration causing 50% reduction of infection [5] | inhibition of trypomastigote binding to coated wells (in words) [6] | effect on E. coli entry (in words) [3] | effect on infection [5] | % Inhibition of penetrin binding to fibroblasts ([1]; compound 5 μg/ml) | % Inhibition of penetrin binding to fibroblasts ([1]; compound 25 μg/ml) | % Inhibition of penetrin binding to fibroblasts ([1]; compound 50 μg/ml) | % Inhibition of penetrin binding to fibroblasts ([1]; compound 100 μg/ml)
1 | Heparan Sulfate | inhiited | 65% | 0.75 cpm × 10^-3 | 85% | 0.6% | 60% | 18% | 1.5 µg/mL | inhibited |  |  |  |  |  | 
2 | Hyaluronic Acid |  |  | 1.8 cpm × 10^-3 |  |  |  | 98% |  |  | without effect | little effect on infection |  |  |  | 
3 | Heparin | inhiited | 91% | 0.7 cpm × 10^-3 | 85% | 0.6% | 50% | 12.5% | 100 µg/mL | inhibited |  |  | 25% | 55% | 75% | 89%
4 | Chondroitin Sulfate |  | 12% | 1.6 cpm × 10^-3 |  |  |  | 96% |  |  | without effect | little effect on infection |  |  |  | 
